The values that follow are results of earlier work, collected in patent US11497789B2, “Formulations of vancomycin” (SciDose Pharma LLC, priority 2016, dated 2022).

The conditions of this data set: after reconstitution of the lyophilized product.

Take `CN[C@H](CC(C)C)C(=O)N[C@H]1C(=O)N[C@@H](CC(N)=O)C(=O)N[C@H]2C(=O)N[C@H]3C(=O)N[C@H](C(=O)N[C@H](C(=O)O)c4cc(O)cc(O)c4-c4cc3ccc4O)[C@H](O)c3ccc(c(Cl)c3)Oc3cc2cc(c3O[C@@H]2O[C@H](CO)[C@@H](O)[C@H](O)[C@H]2O[C@H]2C[C@](C)(N)[C@H](O)[C@H](C)O2)Oc2ccc(cc2Cl)[C@H]1O` [Vancomycin]: the “time stable in water after reconstitution” value is “approximately 24 hours”.
